Assay results taken from publication PMC3264873 (Pharmaceutical Research, 2011).
Like-named read-outs stand apart in the source and are kept apart here.

What was measured:
OATP1B1 [1] = biological target: T1, OATP1B1 (Homo sapiens, UniProt Q9Y6L6); experiment: Concentration-dependent inhibition of OATP1B1-mediated atorvastatin uptake; format: cell-based
T1 sequence (Q9Y6L6 1-691): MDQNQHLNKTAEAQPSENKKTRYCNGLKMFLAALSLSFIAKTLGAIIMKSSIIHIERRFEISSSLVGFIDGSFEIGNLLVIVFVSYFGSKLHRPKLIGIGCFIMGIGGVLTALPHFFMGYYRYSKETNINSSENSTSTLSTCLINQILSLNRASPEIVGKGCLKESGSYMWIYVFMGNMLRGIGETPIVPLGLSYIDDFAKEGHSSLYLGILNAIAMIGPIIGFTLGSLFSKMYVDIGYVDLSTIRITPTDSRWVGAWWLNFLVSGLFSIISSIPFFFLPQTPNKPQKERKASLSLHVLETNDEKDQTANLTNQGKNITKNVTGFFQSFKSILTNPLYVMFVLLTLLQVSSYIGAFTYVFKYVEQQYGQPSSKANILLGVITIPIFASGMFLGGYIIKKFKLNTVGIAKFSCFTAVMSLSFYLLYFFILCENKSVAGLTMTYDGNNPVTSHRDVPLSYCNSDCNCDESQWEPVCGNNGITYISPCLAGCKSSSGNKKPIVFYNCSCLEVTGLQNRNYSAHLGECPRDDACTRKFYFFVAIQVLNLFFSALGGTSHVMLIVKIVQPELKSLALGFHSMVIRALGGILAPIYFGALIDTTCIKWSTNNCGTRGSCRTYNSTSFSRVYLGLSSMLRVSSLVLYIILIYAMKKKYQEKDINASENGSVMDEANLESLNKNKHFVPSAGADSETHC

OATP1B1 [2] = biological target: T1, OATP1B1; experiment: Calculation of R-values; settings: for R-value E: ka = 0.03, Fa published value (lopinavir Fa = 1); for Range of the eight R-values A–H: all eight calculation variants; for Average (mean) R-value: mean of the eight R-values A–H
OATP1B1 [3] = biological target: T1, OATP1B1; settings: IC50 from another study and cell system; ref [3]; cited from earlier work
[4] = clinical co-administration with the inhibitor; ref [37],[27],[43],[51],[46]; cited from earlier work
[5] = cited from earlier work
[6] = ref [3],[23],[24]; cited from earlier work

## Cc1cccc(C)c1OCC(=O)N[C@@H](Cc1ccccc1)[C@@H](O)C[C@H](Cc1ccccc1)NC(=O)[C@H](C(C)C)N1CCCNC1=O [Lopinavir]
OATP1B1 [1]
  IC50: 0.74 µM
  Ki: 0.32 µM
OATP1B1 [2]
  R-value B: 1.76
  R-value C: 2.56
  R-value D: 2.56
  R-value F: 2.74
  R-value G: 4.58
  R-value H: 4.58
  Range of the eight R-values A–H: 1.76–4.58
  Average (mean) R-value: 2.91
OATP1B1 [2]; Eq. 3 (Ki)
  R-value E: 2.74
OATP1B1 [3]
  R-value B calculated in the literature: 9.2

## Cc1ccc(C)c(OCCCC(C)(C)C(=O)O)c1 [Gemfibrozil]
OATP1B1 [1]
  IC50: 156 µM
  Ki: 68.1 µM
OATP1B1 [2]; Eq. 2 (IC50), ka = 0.03, Fa = 1, International Transporter Consortium method
  R-value B: 1.05
OATP1B1 [2]; Eq. 2 (IC50), ka = 0.1, Fa = 1
  R-value D: 1.08
OATP1B1 [2]; Eq. 2 (IC50), ka = 0.1, Fa published value (lopinavir Fa = 1)
  R-value C: 1.08
OATP1B1 [2]; Eq. 3 (Ki), ka = 0.03, Fa = 1
  R-value F: 1.11
OATP1B1 [2]; Eq. 3 (Ki)
  R-value E: 1.11
OATP1B1 [2]; Eq. 3 (Ki), ka = 0.1, Fa = 1, Hirano et al. method
  R-value H: 1.19
OATP1B1 [2]; Eq. 3 (Ki), ka = 0.1, Fa published value (lopinavir Fa = 1)
  R-value G: 1.19
OATP1B1 [2]
  Range of the eight R-values A–H: 1.05–1.19
  Average (mean) R-value: 1.11
[4]
  Fold AUC change Atorvastatin: 1.2 fold
[5]; amprenavir recalculated from fosamprenavir data, ref [23]–[28]
  Imax, maximum systemic plasma concentration of the inhibitor: 99.9 µM
[5]; ref [23]–[25]
  Fa, fraction of the inhibitor dose absorbed (maximum oral bioavailability): 0.98
[6]
  Fu, fraction of the inhibitor that is unbound: 0.05
